Laboratory results taken from ChEMBL document CHEMBL5465560, “Selectivity Literature for EUbOPEN Chemogenomic Library” (2024).

Legend:
[1] = molecular target: Phosphatidylinositol 4,5-bisphosphate 3-kinase catalytic subunit alpha isoform (Homo sapiens) (UniProt P42336); assay: (§1) Selectivity interaction (KinomeScan (DiscoverX)) EUB0001049a PIK3CA; conditions: at 1 µM
[2] = test system: Phosphatidylinositol 4,5-bisphosphate 3-kinase catalytic subunit alpha isoform (Homo sapiens), P42336 [M1043I]; assay: as §1; conditions: at 1 µM
Chain of Phosphatidylinositol 4,5-bisphosphate 3-kinase catalytic subunit alpha isoform (Homo sapiens), P42336 [M1043I] (P42336 whole entry M1043I, canonical isoform): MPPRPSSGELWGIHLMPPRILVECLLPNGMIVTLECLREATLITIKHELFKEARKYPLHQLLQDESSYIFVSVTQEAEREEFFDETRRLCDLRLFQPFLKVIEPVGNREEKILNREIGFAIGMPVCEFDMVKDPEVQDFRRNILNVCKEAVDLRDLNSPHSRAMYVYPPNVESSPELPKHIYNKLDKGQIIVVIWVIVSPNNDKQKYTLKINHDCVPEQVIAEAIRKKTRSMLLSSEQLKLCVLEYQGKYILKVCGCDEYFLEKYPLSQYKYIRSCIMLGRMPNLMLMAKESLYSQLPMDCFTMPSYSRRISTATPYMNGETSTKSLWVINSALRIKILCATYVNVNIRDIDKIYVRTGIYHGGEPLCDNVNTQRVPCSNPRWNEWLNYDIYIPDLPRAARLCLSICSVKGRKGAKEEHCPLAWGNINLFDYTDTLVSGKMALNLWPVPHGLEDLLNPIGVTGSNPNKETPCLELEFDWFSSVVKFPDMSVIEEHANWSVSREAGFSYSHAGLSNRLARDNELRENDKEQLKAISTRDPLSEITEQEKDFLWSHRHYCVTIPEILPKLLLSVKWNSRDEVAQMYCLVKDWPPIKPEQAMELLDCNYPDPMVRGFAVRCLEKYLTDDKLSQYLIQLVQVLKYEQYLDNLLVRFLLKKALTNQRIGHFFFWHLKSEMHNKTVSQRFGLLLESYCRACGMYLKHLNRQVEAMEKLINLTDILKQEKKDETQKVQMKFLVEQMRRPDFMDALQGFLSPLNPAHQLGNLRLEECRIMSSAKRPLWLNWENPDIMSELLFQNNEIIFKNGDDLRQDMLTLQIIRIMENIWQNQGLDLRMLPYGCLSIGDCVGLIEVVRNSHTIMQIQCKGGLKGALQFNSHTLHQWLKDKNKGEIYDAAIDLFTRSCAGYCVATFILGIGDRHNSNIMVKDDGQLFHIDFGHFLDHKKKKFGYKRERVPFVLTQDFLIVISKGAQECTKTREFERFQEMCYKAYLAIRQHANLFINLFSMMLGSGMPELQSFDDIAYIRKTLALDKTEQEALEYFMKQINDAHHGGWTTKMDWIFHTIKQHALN

[3] = test system: Phosphatidylinositol 4,5-bisphosphate 3-kinase catalytic subunit alpha isoform (Homo sapiens), P42336 [C420R]; assay: as §1; conditions: at 1 µM
Chain of Phosphatidylinositol 4,5-bisphosphate 3-kinase catalytic subunit alpha isoform (Homo sapiens), P42336 [C420R] (P42336 whole entry C420R, canonical isoform): as the sequence (P42336 whole entry M1043I, canonical isoform) above, with C420R, I1043M counted along it

[4] = test system: Phosphatidylinositol 4,5-bisphosphate 3-kinase catalytic subunit alpha isoform (Homo sapiens), P42336 [E545K]; assay: as §1; conditions: at 1 µM
Chain of Phosphatidylinositol 4,5-bisphosphate 3-kinase catalytic subunit alpha isoform (Homo sapiens), P42336 [E545K] (P42336 whole entry E545K, canonical isoform): as the sequence (P42336 whole entry M1043I, canonical isoform) above, with E545K, I1043M counted along it

[5] = test system: Phosphatidylinositol 4,5-bisphosphate 3-kinase catalytic subunit alpha isoform (Homo sapiens), P42336 [E545A]; assay: as §1; conditions: at 1 µM
Chain of Phosphatidylinositol 4,5-bisphosphate 3-kinase catalytic subunit alpha isoform (Homo sapiens), P42336 [E545A] (P42336 whole entry E545A, canonical isoform): as the sequence (P42336 whole entry M1043I, canonical isoform) above, with E545A, I1043M counted along it

[6] = test system: Phosphatidylinositol 4,5-bisphosphate 3-kinase catalytic subunit alpha isoform (Homo sapiens), P42336 [Q546K]; assay: as §1; conditions: at 1 µM
Chain of Phosphatidylinositol 4,5-bisphosphate 3-kinase catalytic subunit alpha isoform (Homo sapiens), P42336 [Q546K] (P42336 whole entry Q546K, canonical isoform): as the sequence (P42336 whole entry M1043I, canonical isoform) above, with Q546K, I1043M counted along it

[7] = test system: Phosphatidylinositol 4,5-bisphosphate 3-kinase catalytic subunit alpha isoform (Homo sapiens), P42336 [I800L]; assay: as §1; conditions: at 1 µM
Chain of Phosphatidylinositol 4,5-bisphosphate 3-kinase catalytic subunit alpha isoform (Homo sapiens), P42336 [I800L] (P42336 whole entry I800L, canonical isoform): as the sequence (P42336 whole entry M1043I, canonical isoform) above, with I800L, I1043M counted along it

[8] = test system: Phosphatidylinositol 4,5-bisphosphate 3-kinase catalytic subunit alpha isoform (Homo sapiens), P42336 [H1047Y]; assay: as §1; conditions: at 1 µM
Chain of Phosphatidylinositol 4,5-bisphosphate 3-kinase catalytic subunit alpha isoform (Homo sapiens), P42336 [H1047Y] (P42336 whole entry H1047Y, canonical isoform): as the sequence (P42336 whole entry M1043I, canonical isoform) above, with I1043M, H1047Y counted along it

[9] = test system: Phosphatidylinositol 4,5-bisphosphate 3-kinase catalytic subunit alpha isoform (Homo sapiens), P42336 [E542K]; assay: as §1; conditions: at 1 µM
Chain of Phosphatidylinositol 4,5-bisphosphate 3-kinase catalytic subunit alpha isoform (Homo sapiens), P42336 [E542K] (P42336 whole entry E542K, canonical isoform): as the sequence (P42336 whole entry M1043I, canonical isoform) above, with E542K, I1043M counted along it

[10] = test system: Phosphatidylinositol 4,5-bisphosphate 3-kinase catalytic subunit alpha isoform (Homo sapiens), P42336 [H1047L]; assay: as §1; conditions: at 1 µM
Chain of Phosphatidylinositol 4,5-bisphosphate 3-kinase catalytic subunit alpha isoform (Homo sapiens), P42336 [H1047L] (P42336 whole entry H1047L, canonical isoform): as the sequence (P42336 whole entry M1043I, canonical isoform) above, with I1043M, H1047L counted along it

[11] = molecular target: 5'-AMP-activated protein kinase catalytic subunit alpha-2 (Homo sapiens) (UniProt P54646); assay: Selectivity interaction (ActivX KiNativ screen (kinase selectivity in THP-1 cell lysates)) EUB0000639a PRKAA2; format: subcellular; conditions: lysate, at 0.01 µM
Chain of 5'-AMP-activated protein kinase catalytic subunit alpha-2 (Homo sapiens) (P54646 whole entry, looked up): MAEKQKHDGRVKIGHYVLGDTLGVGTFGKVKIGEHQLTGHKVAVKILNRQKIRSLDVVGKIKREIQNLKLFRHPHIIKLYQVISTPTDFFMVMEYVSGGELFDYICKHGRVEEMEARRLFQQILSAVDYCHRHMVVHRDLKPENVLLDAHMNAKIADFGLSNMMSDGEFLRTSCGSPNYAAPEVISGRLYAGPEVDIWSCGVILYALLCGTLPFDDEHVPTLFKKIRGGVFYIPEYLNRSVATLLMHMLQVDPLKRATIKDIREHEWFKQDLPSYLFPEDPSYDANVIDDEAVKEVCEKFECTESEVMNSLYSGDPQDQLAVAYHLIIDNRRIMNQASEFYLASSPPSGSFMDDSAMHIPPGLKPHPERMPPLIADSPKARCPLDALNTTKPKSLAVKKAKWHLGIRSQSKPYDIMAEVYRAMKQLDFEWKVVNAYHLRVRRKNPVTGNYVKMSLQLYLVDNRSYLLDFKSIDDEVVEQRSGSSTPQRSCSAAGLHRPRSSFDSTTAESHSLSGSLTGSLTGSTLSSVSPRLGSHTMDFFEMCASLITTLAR

[12] = molecular target: Calcium/calmodulin-dependent protein kinase type 1B (Homo sapiens) (UniProt Q6P2M8); assay: Selectivity interaction (KinomeScan (DiscoverX)) EUB0001079a PNCK; conditions: at 1 µM
Chain of Calcium/calmodulin-dependent protein kinase type 1B (Homo sapiens) (Q6P2M8 whole entry): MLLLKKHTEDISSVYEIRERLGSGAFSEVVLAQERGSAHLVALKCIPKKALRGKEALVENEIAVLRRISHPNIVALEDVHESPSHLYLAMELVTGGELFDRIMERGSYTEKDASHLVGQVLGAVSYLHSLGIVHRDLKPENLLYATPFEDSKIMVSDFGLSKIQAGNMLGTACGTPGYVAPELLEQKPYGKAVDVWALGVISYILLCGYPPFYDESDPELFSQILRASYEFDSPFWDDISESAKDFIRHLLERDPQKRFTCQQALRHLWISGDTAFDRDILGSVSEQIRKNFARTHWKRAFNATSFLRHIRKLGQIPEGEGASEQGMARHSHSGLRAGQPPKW

[13] = molecular target: T1, TGF-beta receptor type-1 (Homo sapiens) (UniProt P36897); assay: Selectivity interaction (KinomeScan (DiscoverX)) EUB0000092b TGFBR1; conditions: at 10 µM
T1 sequence (whole entry): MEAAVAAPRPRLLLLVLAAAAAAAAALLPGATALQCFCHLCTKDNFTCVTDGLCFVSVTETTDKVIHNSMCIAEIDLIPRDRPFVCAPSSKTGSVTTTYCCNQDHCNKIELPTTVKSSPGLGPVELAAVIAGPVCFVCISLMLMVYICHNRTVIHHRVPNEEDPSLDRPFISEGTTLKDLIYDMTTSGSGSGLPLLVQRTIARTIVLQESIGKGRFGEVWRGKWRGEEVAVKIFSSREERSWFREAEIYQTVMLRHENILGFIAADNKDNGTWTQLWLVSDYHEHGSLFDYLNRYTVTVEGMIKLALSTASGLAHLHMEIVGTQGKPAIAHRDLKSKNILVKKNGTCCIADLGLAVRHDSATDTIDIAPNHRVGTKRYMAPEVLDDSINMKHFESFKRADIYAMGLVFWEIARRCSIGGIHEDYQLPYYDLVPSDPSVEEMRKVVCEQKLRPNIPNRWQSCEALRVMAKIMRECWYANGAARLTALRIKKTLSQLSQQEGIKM

[14] = molecular target: T2, Mitogen-activated protein kinase kinase kinase kinase 2 (Homo sapiens) (UniProt Q12851); assay: Selectivity interaction (KinomeScan (DiscoverX)) EUB0001619a MAP4K2; conditions: at 1 µM
T2 sequence (whole entry): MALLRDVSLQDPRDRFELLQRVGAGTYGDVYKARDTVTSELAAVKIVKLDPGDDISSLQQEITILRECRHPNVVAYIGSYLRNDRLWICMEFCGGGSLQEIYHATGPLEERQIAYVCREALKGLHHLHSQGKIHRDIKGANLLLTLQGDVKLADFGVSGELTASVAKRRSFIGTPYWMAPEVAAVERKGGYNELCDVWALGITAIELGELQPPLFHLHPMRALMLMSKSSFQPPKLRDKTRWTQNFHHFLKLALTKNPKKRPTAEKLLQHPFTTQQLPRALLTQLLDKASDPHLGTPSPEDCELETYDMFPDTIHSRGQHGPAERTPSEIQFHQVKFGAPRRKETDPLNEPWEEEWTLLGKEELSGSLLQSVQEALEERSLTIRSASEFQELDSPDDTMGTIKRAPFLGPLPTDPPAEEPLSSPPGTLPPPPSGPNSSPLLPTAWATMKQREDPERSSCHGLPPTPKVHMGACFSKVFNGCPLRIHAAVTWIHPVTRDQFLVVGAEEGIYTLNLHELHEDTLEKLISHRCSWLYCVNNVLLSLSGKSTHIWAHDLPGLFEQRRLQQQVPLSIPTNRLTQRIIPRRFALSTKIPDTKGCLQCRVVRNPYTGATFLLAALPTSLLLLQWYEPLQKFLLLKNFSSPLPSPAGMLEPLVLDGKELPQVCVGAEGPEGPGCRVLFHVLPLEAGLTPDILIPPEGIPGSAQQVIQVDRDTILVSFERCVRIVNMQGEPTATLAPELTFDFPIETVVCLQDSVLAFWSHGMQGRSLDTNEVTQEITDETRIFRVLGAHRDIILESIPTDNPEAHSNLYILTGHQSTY

[15] = molecular target: T3, Mitogen-activated protein kinase 13 (Homo sapiens) (UniProt O15264); assay: Selectivity interaction (KinomeScan (DiscoverX)) EUB0000618a MAPK13; conditions: at 10 µM
T3 sequence (whole entry): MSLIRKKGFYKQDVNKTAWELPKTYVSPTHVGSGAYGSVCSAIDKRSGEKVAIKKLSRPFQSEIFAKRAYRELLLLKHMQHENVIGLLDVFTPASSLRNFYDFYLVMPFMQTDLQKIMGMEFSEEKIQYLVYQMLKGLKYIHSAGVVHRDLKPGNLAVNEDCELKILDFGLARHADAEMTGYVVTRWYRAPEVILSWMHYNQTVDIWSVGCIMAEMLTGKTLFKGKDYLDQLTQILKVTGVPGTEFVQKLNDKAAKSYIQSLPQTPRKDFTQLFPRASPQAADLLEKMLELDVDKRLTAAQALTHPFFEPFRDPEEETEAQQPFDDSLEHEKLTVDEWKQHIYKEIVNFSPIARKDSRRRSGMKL

[16] = molecular target: Cyclin-dependent kinase 1 (Homo sapiens) (UniProt P06493); assay: Selectivity interaction (Kinase panel (KiNativ target engagement assay in Jurkat cells)) EUB0001635a CDK1; format: cell-based; conditions: Selectivity number of off-targets 0.0, Selectivity number of targets 233.0, Source Knowledge https://www.sciencedirect.com/science/article/pii/S2451945619300674?via%3Dihub, at 1 µM
Chain of Cyclin-dependent kinase 1 (Homo sapiens) (P06493 whole entry, looked up): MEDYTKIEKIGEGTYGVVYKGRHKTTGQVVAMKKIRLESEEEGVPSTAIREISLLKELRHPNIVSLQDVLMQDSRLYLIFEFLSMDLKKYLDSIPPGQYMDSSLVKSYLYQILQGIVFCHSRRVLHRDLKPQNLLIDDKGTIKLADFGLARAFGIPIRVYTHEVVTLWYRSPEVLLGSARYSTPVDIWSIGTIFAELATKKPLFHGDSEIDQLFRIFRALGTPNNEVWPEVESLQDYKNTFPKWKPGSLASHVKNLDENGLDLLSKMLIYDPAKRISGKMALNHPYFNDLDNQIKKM

Chain of Phosphatidylinositol 4,5-bisphosphate 3-kinase catalytic subunit alpha isoform (Homo sapiens) (P42336 whole entry, canonical isoform): as the sequence (P42336 whole entry M1043I, canonical isoform) above, with I1043M counted along it

With COc1cc(Nc2nc(C)cc(-c3cnn4nc(OC)ccc34)n2)cc(C(F)(F)F)c1 the % of control [1] was 100%, the % of control [2] was 100% and the % of control [3] was 76%. The % of control [4] was 71%, the % of control [5] was 77% and the % of control [6] was 66%. The % of control [7] was 46%, the % of control [8] was 85% and the % of control [9] was 59%. For the same compound, the % of control [10] was 100%.
With CC[C@@H]1[C@H](F)C(=O)N[C@@H]1COc1nccc2cc(C(N)=O)c(OC)cc12 [ZIMLOVISERTIB] the % of inhibition [11] was 14.5%.
Compound Nc1cnc(N2CCc3cc(S(=O)(=O)Nc4c(F)cc(Cl)cc4F)cc(N4CCCC4=O)c32)nc1 [TP-020n] has a % of control [12] of 67%.
CCC(=O)N1CCN(c2ccc(-n3c(=O)ccc4cnc5ccc(-c6cnc7ccccc7c6)cc5c43)cc2C(F)(F)F)CC1 showed a % of control [13] of 70%.
N#Cc1cccc(-c2c[nH]c3ncnc(N4CCOCC4)c23)c1 showed a % of control [14] of 3.4%.
O[C@H]1CC[C@H](Nc2ncc3nc(Nc4c(F)cc(F)cc4F)n([C@H]4CCOC4)c3n2)CC1 gave a % of control [15] of 90%.
With C=CC(=O)Nc1ccc(C(=O)Nc2[nH]nc3c2CN(C(=O)N[C@H](CN(C)C)c2ccccc2)C3(C)C)cc1 the % of engagement [16] was -6.3%.
